Key:
[1] = molecular target: T1, Liver carboxylesterase 1 (Homo sapiens, UniProt P23141); test: Inhibition of TGH
T1 sequence (P23141 whole entry): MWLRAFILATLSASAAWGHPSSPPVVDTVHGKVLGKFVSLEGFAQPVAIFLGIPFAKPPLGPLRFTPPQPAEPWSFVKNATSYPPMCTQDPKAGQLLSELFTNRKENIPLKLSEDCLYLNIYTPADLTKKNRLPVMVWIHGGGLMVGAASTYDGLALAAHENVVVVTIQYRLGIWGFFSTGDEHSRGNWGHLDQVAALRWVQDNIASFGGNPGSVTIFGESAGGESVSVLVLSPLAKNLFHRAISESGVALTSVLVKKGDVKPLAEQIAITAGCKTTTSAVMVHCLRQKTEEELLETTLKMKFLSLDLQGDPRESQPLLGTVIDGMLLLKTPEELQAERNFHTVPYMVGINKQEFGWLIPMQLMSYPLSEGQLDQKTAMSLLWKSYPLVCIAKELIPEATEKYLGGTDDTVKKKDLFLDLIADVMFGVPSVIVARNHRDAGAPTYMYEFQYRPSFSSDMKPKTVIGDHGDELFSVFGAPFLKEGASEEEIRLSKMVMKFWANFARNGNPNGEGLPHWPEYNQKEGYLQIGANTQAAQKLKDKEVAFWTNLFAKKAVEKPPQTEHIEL

[2] = molecular target: T2, Neutral cholesterol ester hydrolase 1 (Homo sapiens, UniProt Q6PIU2); test: Inhibition of KIAA1363
T2 sequence (Q6PIU2 whole entry): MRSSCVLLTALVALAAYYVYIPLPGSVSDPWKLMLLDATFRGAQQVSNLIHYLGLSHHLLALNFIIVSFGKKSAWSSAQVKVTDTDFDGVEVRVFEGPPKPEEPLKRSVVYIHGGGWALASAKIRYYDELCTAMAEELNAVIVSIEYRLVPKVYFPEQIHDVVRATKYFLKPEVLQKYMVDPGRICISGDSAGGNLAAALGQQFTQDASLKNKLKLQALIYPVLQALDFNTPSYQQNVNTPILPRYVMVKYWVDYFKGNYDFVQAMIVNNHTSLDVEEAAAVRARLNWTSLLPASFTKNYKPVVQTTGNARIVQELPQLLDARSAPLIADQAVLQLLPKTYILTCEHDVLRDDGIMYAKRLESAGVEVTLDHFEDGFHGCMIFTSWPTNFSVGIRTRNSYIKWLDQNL

[3] = species on record: Homo sapiens; test: Selectivity for FAAH over KIAA1363
[4] = species on record: Homo sapiens; test: Selectivity for FAAH over TGH
[5] = molecular target: Fatty-acid amide hydrolase 1 (Rattus norvegicus) (UniProt P97612); test: Inhibition of rat recombinant FAAH expressed in Escherichia coli by [14C]oleamide breakdown
[6] = molecular target: T3, Fatty-acid amide hydrolase 1 (Homo sapiens, UniProt O00519); test: Inhibition of human FAAH expressed in COS7 cells by [14C]oleamide breakdown; type: cell-based, COS-7
T3 sequence (O00519 whole entry): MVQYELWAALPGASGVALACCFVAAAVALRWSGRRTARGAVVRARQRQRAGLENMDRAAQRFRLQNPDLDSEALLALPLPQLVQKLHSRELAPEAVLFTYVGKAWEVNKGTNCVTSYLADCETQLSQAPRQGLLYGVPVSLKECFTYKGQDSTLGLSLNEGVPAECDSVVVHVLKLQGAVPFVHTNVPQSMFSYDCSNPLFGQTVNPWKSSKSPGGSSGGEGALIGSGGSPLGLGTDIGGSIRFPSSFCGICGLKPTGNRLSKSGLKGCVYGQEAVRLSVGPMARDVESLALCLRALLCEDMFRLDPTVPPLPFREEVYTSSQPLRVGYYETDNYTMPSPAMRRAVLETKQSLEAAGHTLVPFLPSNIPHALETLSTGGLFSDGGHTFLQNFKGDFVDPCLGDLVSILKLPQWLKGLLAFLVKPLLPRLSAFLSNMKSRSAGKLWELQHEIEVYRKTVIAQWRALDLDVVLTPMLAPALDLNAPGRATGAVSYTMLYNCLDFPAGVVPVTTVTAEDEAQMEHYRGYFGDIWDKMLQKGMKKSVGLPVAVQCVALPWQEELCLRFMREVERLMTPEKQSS

SMILES | IC50 [1] | IC50 [2] | Ratio IC50 [3] | Ratio IC50 [4] | IC50 [5] | Ki [5] | Ki [6]
O=C(CCCCCCc1ccccc1)c1ncc(-c2cc(F)ccn2)o1 | 600 nM | > 100000 nM | > 40000 | 240 | 2.5 nM | 2 nM | 
NC(=O)c1cccc(-c2cnc(C(=O)CCCCCCc3ccccc3)o2)c1 | > 100000 nM | > 100000 nM | > 40 | > 40 | 2700 nM | 6 nM | 
O=C(O)c1ccc(-c2cnc(C(=O)CCCCCCc3ccccc3)o2)nc1 | 3000 nM | > 100000 nM | > 2000 | 60 | 50 nM | 7 nM | 8 nM
O=C(CCCCCCc1ccccc1)c1ncco1 | 20 nM | 19000 nM | 8 | 0.008 | 2500 nM |  | 
NS(=O)(=O)c1cccc(-c2cnc(C(=O)CCCCCCc3ccccc3)o2)c1 | 200 nM | > 100000 nM | > 200 | 0.5 | 400 nM | 2 nM | 

Results, then the compound that gave them:

IC50 [1] | IC50 [2] | Ratio IC50 [3] | Ratio IC50 [4] | IC50 [5] | Ki [5] | Ki [6] | SMILES
100 nM | 13000 nM | 70 | 0.5 | 190 nM |  |  | O=C(CCCCCCc1ccccc1)c1ncc(Br)o1
34000 nM | > 100000 nM | > 300 | 100 | 340 nM | 25 nM |  | Nc1ccnc(-c2cnc(C(=O)CCCCCCc3ccccc3)o2)c1
70 nM | > 100000 nM | > 250 | 0.2 | 400 nM | 5 nM |  | COc1cc(-c2cnc(C(=O)CCCCCCc3ccccc3)o2)nc(OC)n1
7000 nM | > 100000 nM | > 300 | 20 | 350 nM |  |  | NC(=O)c1cnc(C(=O)CCCCCCc2ccccc2)o1
3000 nM | > 100000 nM | > 11 | 0.3 | 9000 nM | 26 nM |  | COc1ncc(-c2cnc(C(=O)CCCCCCc3ccccc3)o2)c(OC)n1
30000 nM | > 100000 nM | > 20000 | 6200 | 5 nM | 12 nM |  | O=C(CCCCCCc1ccccc1)c1ncc(-c2cc(=O)[nH]c(=O)[nH]2)o1
2000 nM | > 100000 nM | > 100000 | 2000 | 1 nM | 0.6 nM |  | Cc1ccnc(-c2cnc(C(=O)CCCCCCc3ccccc3)o2)c1
